Reference: patent US11999732B2, “P2X3 receptor antagonists” (RECORDATI INDUSTRIA CHIMICA E FARMACEUTICA SPA, priority 2018, dated 2024)
Like-named read-outs stand apart in the source and are kept apart here. Each block holds one compound with its values, some of them ahead of it.

Target: T1, human P2X3 receptor (Homo sapiens, UniProt P56373)
T1 construct: expressed in transfected cells; host or cells: CHO-K1
T1 sequence (P56373 1-397): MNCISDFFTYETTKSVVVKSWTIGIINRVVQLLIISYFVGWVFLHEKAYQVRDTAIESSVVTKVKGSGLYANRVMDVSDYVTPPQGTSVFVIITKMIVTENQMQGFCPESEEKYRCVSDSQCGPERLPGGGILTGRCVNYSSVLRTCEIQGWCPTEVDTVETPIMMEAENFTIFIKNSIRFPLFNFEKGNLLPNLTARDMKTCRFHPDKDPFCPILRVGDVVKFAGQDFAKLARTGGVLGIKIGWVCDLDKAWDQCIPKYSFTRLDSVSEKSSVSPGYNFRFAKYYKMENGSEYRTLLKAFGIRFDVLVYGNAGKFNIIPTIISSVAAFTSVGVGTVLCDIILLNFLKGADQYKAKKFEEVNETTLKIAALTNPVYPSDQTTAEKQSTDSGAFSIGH
Assay: Calcium luminescence (photoprotein) assay in CHO-K1 cells co-expressing human P2X3 receptor, α,β-Met-ATP stimulation, FLEXSTATION readout
Assay type: cell-based
Settings: human P2X3 receptor antagonist activity, CHO-K1 cells, α,β-Met-ATP, read-out: h-P2X3 IC50
Method in brief: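 CHO-K1 cells co-expressing human P2X3 and a Ca2+-sensitive photoprotein, loaded with coelenterazine in Tyrode's buffer (pH 7.4) for 4 h at 37 °C. Compounds injected 4 min before α,β-Met-ATP stimulation; luminescence recorded, IC50 and pseudo-Hill slope from nonlinear regression of inhibition curves.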

Compound: O=C1N(Cc2ccc(Cl)cc2)c2cc(N3CCOCC3)cnc2C2=NCC3(CCOCC3)N12 [Example 41, 6-(4-chlorobenzyl)-8-(morpholin-4-yl)-2,2′,3′,5′,6,6′-hexahydro-5h-spiro[imidazo[1,2-c]pyrido[2,3-e]pyrimidine-3,4′-pyran]-5-one]
IC50 (Table 6): 3320 nM

Compound: COc1cc(CN2C(=O)N3CC(C(C)C)N=C3c3ncc(C(=O)N4CCOCC4)cc32)cc(OC)c1 (centres unmarked) [Example 60, 6-(3,5-dimethoxybenzyl)-8-(morpholin-4-ylcarbonyl)-2-(propan-2-yl)-2,6-dihydroimidazo[1,2-c]pyrido[2,3-e]pyrimidin-5(3H)-one]
IC50 (Table 6): 1100 nM

Compound: COc1ccc(CN2C(=O)N3CC(C(C)C)N=C3c3ncc(N4CCC(N(C)C)CC4)cc32)cc1 (centres unmarked) [Example 21, 8-[4-(dimethylamino)piperidin-1-yl]-6-(4-methoxybenzyl)-2-(propan-2-yl)-2,6-dihydroimidazo[1,2-c]pyrido[2,3-e]pyrimidin-5(3H)-one]
IC50 (Table 6): 7190 nM

Compound: COCC1CN(c2cnc3c(c2)n(Cc2ccc(OC)cc2)c(=O)n2c(C)c(C(C)C)nc32)C1 [Example 92, 6-(4-methoxybenzyl)-8-[3-(methoxymethyl)azetidin-1-y1]-3-methyl-2-(propan-2-yl)imidazo[1,2-c]pyrido[2,3-e]pyrimidin-5(6H)-one]
IC50 (Table 7): 802 nM

Compound: COCC1CN2C(=O)N(Cc3ccc(Cl)cc3)c3cc(N4CCOCC4)cnc3C2=N1 (centres unmarked) [Example 11, 6-(4-chlorobenzyl)-2-(methoxymethyl)-8-(morpholin-4-y1)-2,6-dihydroimidazo[1,2-c]pyrido[2,3-e]pyrimidin-5(3H)-one]
IC50 (Table 6): 358 nM

Compound: COc1ccc(CN2C(=O)N3CC(C4CCC4)N=C3c3ncc(N4CCOCC4)cc32)cc1 (centres unmarked) [Example 33, 2-cyclobutyl-6-(4-methoxybenzyl)-8-(morpholin-4-yl)-2,6-dihydroimidazo[1,2-c]pyrido[2,3-e]pyrimidin-5(3H)-one]
IC50 (Table 6): 219 nM

Compound: CC(C)CC1CN=C2c3ncc(N4CCOCC4)cc3N(Cc3ccc(Cl)cc3)C(=O)N21 (centres unmarked) [Example 31, 6-(4-chlorobenzyl)-3-(2-methylpropyl)-8-(morpholin-4-yl)-2,6-dihydroimidazo[1,2-c]pyrido[2,3-e]pyrimidin-5(3H)-one]
IC50 (Table 6): 229 nM

Compound: COc1cc(Cn2c(=O)n3cc(CC(C)C)nc3c3ncc(N4CCOCC4)cc32)cc(OC)c1 [Example 74, 6-(3,5-dimethoxybenzyl)-2-(2-methylpropyl)-8-(morpholin-4-yl)imidazo[1,2-c]pyrido[2,3-e]pyrimidin-5(6H)-one]
IC50 (Table 7): 416 nM

Compound: CC(C)C1CN2C(=O)N(Cc3ccc(Cl)cc3)c3cc(N4CCC(O)CC4)cnc3C2=N1 (centres unmarked) [Example 51, 6-(4-chlorobenzyl)-8-(4-hydroxypiperidin-1-yl)-2-(propan-2-yl)-2,6-dihydroimidazo[1,2-c]pyrido[2,3-e]pyrimidin-5(3H)-one]
IC50 (Table 6): 731 nM

Compound: COc1ccc(CN2C(=O)N3CC(COC(C)(C)C)N=C3c3ncc(N4CCOCC4)cc32)cc1 (centres unmarked) [Example 57, 2-(tert-butoxymethyl)-6-(4-methoxybenzyl)-8-(morpholin-4-yl)-2,6-dihydroimidazo[1,2-c]pyrido[2,3-e]pyrimidin-5(3H)-one]
IC50 (Table 6): 3280 nM

Compound: COc1cc(CN2C(=O)N3C(=NCC3c3ccccc3)c3ncc(N4CCOCC4)cc32)cc(OC)c1 (centres unmarked) [Example 47, 6-(3,5-dimethoxybenzyl)-8-(morpholin-4-yl)-3-phenyl-2,6-dihydroimidazo[1,2-c]pyrido[2,3-e]pyrimidin-5(3H)-one]
IC50 (Table 6): 199 nM

Compound: COCC1CN(c2cnc3c(c2)n(Cc2cc(OC)cc(OC)c2)c(=O)n2c(C)c(C(C)C)nc32)C1 [Example 88, 6-(3,5-dimethoxybenzyl)-8-[3-(methoxymethyl)azetidin-1-y1]-3-methyl-2-(propan-2-yl)imidazo[1,2-c]pyrido[2,3-e]pyrimidin-5(6H)-one]
IC50 (Table 7): 53.6 nM

Compound: COc1ccc(CN2C(=O)N3CC(CC(C)(C)C)N=C3c3ncc(N4CCOCC4)cc32)cc1 (centres unmarked) [Example 34, 2-(2,2-dimethylpropyl)-6-(4-methoxybenzyl)-8-(morpholin-4-y1)-2,6-dihydroimidazo[1,2-c]pyrido[2,3-e]pyrimidin-5(3H)-one]
IC50 (Table 6): 408 nM

Compound: CC(C)Cc1cn2c(=O)n(Cc3ccc(Cl)cc3)c3cc(N4CC5(COC5)C4)cnc3c2n1 [Example 73, 6-(4-chlorobenzyl)-2-(2-methylpropyl)-8-(2-oxa-6-azaspiro[3.3]heptan-6-yl)imidazo[1,2-c]pyrido[2,3-e]pyrimidin-5(6H)-one]
IC50 (Table 7): 917 nM

Compound: COc1ccc(CN2C(=O)N3C(=NCC3C3CCCCC3)c3ncc(N4CCOCC4)cc32)cc1 (centres unmarked) [Example 24, 3-cyclohexyl-6-(4-methoxybenzyl)-8-(morpholin-4-yl)-2,6-dihydroimidazo[1,2-c]pyrido[2,3-e]pyrimidin-5(3H)-one]
IC50 (Table 6): 515 nM

Compound: CCC1CN2C(=O)N(Cc3ccc(Cl)cc3)c3cc(N4CCOCC4)cnc3C2=N1 (centres unmarked) [Example 50, 6-(4-chlorobenzyl)-2-ethyl-8-(morpholin-4-y1)-2,6-dihydroimidazo[1,2-c]pyrido[2,3-e]pyrimidin-5(3H)-one]
IC50 (Table 6): 280 nM

Compound: COc1cc(CN2C(=O)N3CC(C(C)C)N=C3c3ncc(N4CCOCC4)cc32)cc(OC)c1 (centres unmarked) [Example 4, 6-(3,5-dimethoxybenzyl)-8-(morpholin-4-yl)-2-(propan-2-yl)-2,6-dihydroimidazo[1,2-c]pyrido[2,3-e]pyrimidin-5(3H)-one]
IC50 (Table 6): 178 nM

Compound: O=C1N2CC(c3ccccc3)N=C2c2ncc(N3CCOCC3)cc2N1Cc1ccc(Cl)cc1 (centres unmarked) [Example 36, 6-(4-chlorobenzyl)-8-(morpholin-4-y1)-2-phenyl-2,6-dihydroimidazo[1,2-c]pyrido[2,3-e]pyrimidin-5(3H)-one]
IC50 (Table 6): 245 nM

More lines, now with the values ahead:

IC50 (Table 8): 246 nM
Compound: COc1ccc(Cc2nn3c(C(C)(C)C)nnc3c3ncc(N4CCOCC4)cc23)cc1 [Example 123, 3-tert-butyl-6-(4-methoxybenzyl)-8-(morpholin-4-yl)pyrido[2,3-d][1,2,4]triazolo[4,3-b]pyridazine]

IC50 (Table 8): 1790 nM
Compound: Cc1ccc(Cc2nn3c(CC4CCCCC4)nnc3c3ncccc23)cc1 [Example 136, 3-(cyclohexylmethyl)-6-(4-methylbenzyl)pyrido[2,3-d][1,2,4]triazolo[4,3-b]pyridazine]

IC50 (Table 7): 734 nM
Compound: COc1ccc(Cn2c(=O)n3c(CC(C)C)nnc3c3ncc(N4CCOCC4)cc32)cc1 [Example 104, 6-(4-methoxybenzyl)-3-(2-methylpropyl)-8-(morpholin-4-yl)pyrido[2,3-e][1,2,4]triazolo[4,3-c]pyrimidin-5(6H)-one]

IC50 (Table 9): 2480 nM
Compound: COc1cc(CN2C(=O)N3CC(C)(C)CN=C3c3ncc(NCCO)cc32)cc(OC)c1 [Example 144, 5-(3,5-dimethoxybenzyl)-3-[(2-hydroxyethyl)amino]-9,9-dimethyl-5,8,9,10-tetrahydro-6H-pyrido[2,3-e]pyrimido[1,2-c]pyrimidin-6-one]

IC50 (Table 9): 938 nM
Compound: CCC1CCN=C2c3ncc(N4CCOCC4)cc3N(Cc3cc(OC)cc(OC)c3)C(=O)N21 (centres unmarked) [Example 151, 5-(3,5-dimethoxybenzyl)-8-ethyl-3-(morpholin-4-yl)-5,8,9,10-tetrahydro-6H-pyrido[2,3-e]pyrimido[1,2-c]pyrimidin-6-one]

IC50 (Table 7): 257 nM
Compound: Cc1noc(C)c1-c1nnc2c3ncc(N4CCOCC4)cc3n(Cc3ccc(Cl)cc3)c(=O)n12 [Example 110, 6-(4-chlorobenzyl)-3-(3,5-dimethyl-1,2-oxazol-4-yl)-8-(morpholin-4-yl)pyrido[2,3-e][1,2,4]triazolo[4,3-c]pyrimidin-5(6H)-one]

IC50 (Table 8): 576 nM
Compound: COCC1CN(c2cnc3c(c2)c(Cc2ccc(Cl)cc2)nn2c(CC(C)C)nnc32)C1 [Example 128, 6-(4-chlorobenzyl)-8-[3-(methoxymethyl)azetidin-1-yl]-3-(2-methylpropyl)pyrido[2,3-d][1,2,4]triazolo[4,3-b]pyridazine]

IC50 (Table 9): 188 nM
Compound: COc1ccc(CN2C(=O)N3C(=NC(=O)C3C(C)C)c3ncc(N4CCOCC4)cc32)cc1 (centres unmarked) [Example 164, 6-(4-methoxybenzyl)-8-(morpholin-4-yl)-3-(propan-2-yl)imidazo[1,2-c]pyrido[2,3-e]pyrimidine-2,5(3H,6H)-dione]

IC50 (Table 7): 655 nM
Compound: O=c1n(Cc2ccc(Cl)cc2)c2cc(N3CCOCC3)cnc2c2nnc(Cc3cccnc3O)n12 [Example 105, 6-(4-chlorobenzyl)-3-[(2-hydroxypyridin-3-yl)methyl]-8-(morpholin-4-yl)pyrido[2,3-e][1,2,4]triazolo[4,3-c]pyrimidin-5(6H)-one]

IC50 (Table 7): 175 nM
Compound: CC(C)Cc1nnc2c3ncc(N4CCOCC4)cc3n(Cc3ccc(Cl)cc3)c(=O)n12 [Example 108, 6-(4-chlorobenzyl)-3-(2-methylpropyl)-8-(morpholin-4-yl)pyrido[2,3-e][1,2,4]triazolo[4,3-c]pyrimidin-5(6H)-one]

IC50 (Table 9): 2260 nM
Compound: CC1(C)CN=C2c3ncc(NCCO)cc3N(Cc3ccc(Cl)cc3)C(=O)N2C1 [Example 143, 5-(4-chlorobenzyl)-3-[(2-hydroxyethyl)amino]-9,9-dimethyl-5,8,9,10-tetrahydro-6H-pyrido[2,3-e]pyrimido[1,2-c]pyrimidin-6-one]
